From article PMC3531433, “Structural Insights into Cellulolytic and Chitinolytic Enzymes Revealing Crucial Residues of Insect β-N-acetyl-D-hexosaminidase” (PLoS ONE, 2012)

Tests used:
OfHex1 [1] = target: T1, OfHex1 (Ostrinia furnacalis, UniProt Q06GJ0, E328A); assay: inhibition of 4MU-β-GlcNAc hydrolysis, Dixon plot; type: biochemical
T1 construct: pPIC9, secreted from Pichia pastoris GS115; HisTrap and Mono Q purified; dimer with N-terminal zincin-like and C-terminal catalytic domain (residues 207-594)
T1 sequence (Q06GJ0 23-594 E328A): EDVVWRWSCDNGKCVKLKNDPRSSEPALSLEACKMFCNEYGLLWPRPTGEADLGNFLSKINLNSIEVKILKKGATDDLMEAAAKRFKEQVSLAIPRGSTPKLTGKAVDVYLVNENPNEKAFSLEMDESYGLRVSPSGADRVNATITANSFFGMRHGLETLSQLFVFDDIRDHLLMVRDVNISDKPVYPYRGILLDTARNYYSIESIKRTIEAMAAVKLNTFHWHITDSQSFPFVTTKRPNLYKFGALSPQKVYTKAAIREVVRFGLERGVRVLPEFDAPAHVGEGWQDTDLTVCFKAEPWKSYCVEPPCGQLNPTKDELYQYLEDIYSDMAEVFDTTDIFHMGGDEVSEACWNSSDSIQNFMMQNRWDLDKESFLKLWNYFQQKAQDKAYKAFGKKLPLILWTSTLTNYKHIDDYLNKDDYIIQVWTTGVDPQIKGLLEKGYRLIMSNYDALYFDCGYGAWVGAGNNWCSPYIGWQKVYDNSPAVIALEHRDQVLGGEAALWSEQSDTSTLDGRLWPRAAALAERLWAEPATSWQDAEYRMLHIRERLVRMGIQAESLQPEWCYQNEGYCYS
From the text: (§1) inhibition of 4MU-β-GlcNAc hydrolysis, Dixon plot on OfHex1

OfHex1 [2] = target: T2, OfHex1 (Ostrinia furnacalis, UniProt Q06GJ0, E328Q); assay: inhibition of 4MU-β-GlcNAc hydrolysis, Dixon plot; type: biochemical
T2 construct: pPIC9, secreted from Pichia pastoris GS115; HisTrap and Mono Q purified; dimer with N-terminal zincin-like and C-terminal catalytic domain (residues 207-594)
T2 sequence (Q06GJ0 23-594 E328Q): T1 sequence (Q06GJ0 23-594 E328A)
From the text: as §1

CC(=O)N[C@@H]1[C@@H](O)[C@H](O[C@@H]2O[C@H](CO)[C@@H](O[C@@H]3O[C@H](CO)[C@@H](O[C@@H]4O[C@H](CO)[C@@H](O)[C@H](O)[C@H]4[N+](C)(C)C)[C@H](O)[C@H]3NC(C)=O)[C@H](O)[C@H]2NC(C)=O)[C@@H](CO)O[C@H]1O [TMG-chitotriomycin]
Ki (OfHex1 [1]): 2710 nM
Ki (OfHex1 [2]): 101 nM
